Each compound was assayed on Huh7 psiCHECK-miR122 Renilla luciferase reporter, 48 h (assay: miR-122 inhibitors in Huh7 reporter cells, dose response, cell-based, Huh7 psiCHECK-miR122, Renilla luciferase, cherry-pick (AID 652053)).
For `FC(F)(F)c1cccc(NC(=S)NCCc2ccccn2)c1`, the AC40 was 2.88 µM.
For `CC(=O)N1c2c(cc(Br)cc2S(=O)(=O)NCc2ccccc2)CC1C` (stereo not given), the AC40 was 5.96 µM.
`C[C@@H]1CN([C@@H](C)CO)C(=O)c2cccc(NC(=O)Nc3ccccc3)c2O[C@H]1CN(C)Cc1ccc(C(F)(F)F)cc1` gave an AC40 of 2.49 µM.
`CCOC(=O)c1ccc(NS(=O)(=O)c2cc(C)ccc2OC)cc1` showed an AC40 of 8.03 µM.
With `Cc1ccc(C(=O)Nc2ccc(Cl)cc2C(=O)c2ccccc2)cc1` the AC40 was 18.6 µM.
Compound `C[C@H](CO)N1C[C@H](C)[C@H](CN(C)Cc2ccc(C(=O)Nc3ccccc3N)cc2)Oc2c(NS(=O)(=O)c3ccccc3)cccc2C1=O` has an AC40 of 16.1 µM.
`COc1cc(S(=O)(=O)Nc2ccccc2N2CCCCC2)ccc1NC(C)=O` gave an AC40 of 6.94 µM.
`CCCCOc1ccc(S(=O)(=O)Nc2ccc(NC(C)=O)cc2)cc1` gave an AC40 of 10.3 µM.
`COc1ccc(S(=O)(=O)NCc2ccccc2)cc1Br` gave an AC40 of 5.07 µM.
`CN1C(=O)c2cc(NC(=O)NCc3ccccc3)ccc2OC[C@@H]2O[C@H](CC(=O)NCC3CCCCC3)CC[C@@H]21` gave an AC40 of 0.358 µM.
Work on `COc1ccc(C)cc1NS(=O)(=O)c1ccc2c(c1)N(C)CCO2` yielded an AC40 of 1.54 µM.
In the case of `O=C(COc1ccc(S(=O)(=O)NC2CCCCC2)cc1)NC1CCCC1`, the AC40 is reported as 8.46 µM.
`C[C@H]1CN([C@@H](C)CO)C(=O)c2cccc(NC(=O)c3ccncc3)c2O[C@@H]1CN(C)CC1CCCCC1` gave an AC40 of 7.44 µM.
With `CCN1C(=O)c2cccc3c(S(=O)(=O)NCCc4c[nH]c5ccccc45)ccc1c23` the AC40 was 3.09 µM.
`Cc1ccc(C)c(S(=O)(=O)Nc2ccc3sc(C)nc3c2)c1` showed an AC40 of 1.5 µM.
With `Cc1ccc(C)c(S(=O)(=O)Nc2ccc(-n3cnnn3)cc2)c1` the AC40 was < 0.26 µM.
Compound `Cc1ccc(S(=O)(=O)NC2CCCCCC2)cc1` has an AC40 of 2.92 µM.
For `CN1C(=O)c2cc(NC(=O)Cc3ccccc3)ccc2OC[C@@H]2O[C@@H](CC(=O)NCC3CC3)CC[C@@H]21`, the AC40 was 0.732 µM.
For `Cc1cc(C)c(C)c(S(=O)(=O)Nc2ccc3cn[nH]c3c2)c1C`, the AC40 was 0.694 µM.
Compound `CSc1ccc(S(=O)(=O)NC2CCCCC2)cc1` has an AC40 of 2.87 µM.
`O=S(=O)(Nc1ccccc1)c1ccc(-c2cnc(C3CC3)o2)cc1` was tested, and the AC40 was 8.92 µM.
Compound `COc1cccc(-c2ccc3c(c2)[C@H]2[C@H](CCN2S(=O)(=O)c2ccccc2C)[C@@H](CO)N3)c1` has an AC40 of 14.3 µM.
`Cc1ccc(-c2n[nH]c(=O)c3ccccc23)cc1S(=O)(=O)Nc1ccc(F)cc1` was tested, and the AC40 was 0.293 µM.
For `COc1ccccc1CNS(=O)(=O)c1ccc(-c2cc(C)no2)cc1`, the AC40 was 10.8 µM.
In the case of `COc1ccc(NC(=O)c2cccc(S(=O)(=O)Nc3ccc(Br)cc3)c2)cn1`, the AC40 is reported as 2.11 µM.
For `FC(F)Sc1ccc(NC(=S)NC2CCCCC2)cc1`, the AC40 was 4.16 µM.
In the case of `O=S(=O)(NCCc1ccncc1)c1cc(Br)ccc1F`, the AC40 is reported as 2.66 µM.
For `COc1ccc(NS(=O)(=O)c2cc(NC(=O)[C@@H](NC(=O)c3ccccc3)C(C)C)ccc2C)cc1`, the AC40 was 2.3 µM.
In the case of `C[C@@H]1CN([C@H](C)CO)C(=O)Cc2cc(NC(=O)Nc3ccc(C(F)(F)F)cc3)ccc2O[C@@H]1CN(C)C(=O)Nc1cccc2ccccc12`, the AC40 is reported as < 0.26 µM.
With `COc1cc(NS(=O)(=O)c2csc(C(N)=O)c2)cc(OC)c1` the AC40 was 1.51 µM.
In the case of `CC(C)CNS(=O)(=O)c1ccc2c(c1)OCCO2`, the AC40 is reported as 5.9 µM.
`COc1ccc(NS(=O)(=O)c2cc(C)ccc2C)cc1` gave an AC40 of 1.47 µM.
`C[C@@H]1CN([C@H](C)CO)C(=O)c2cccc(NS(=O)(=O)c3ccccc3)c2O[C@@H]1CN(C)Cc1ccc(C(=O)Nc2ccccc2N)cc1` was tested, and the AC40 was 17.2 µM.
Work on `O=C(Nc1ccc(S(=O)(=O)NC2CCCCC2)cc1)c1ccc(Br)o1` yielded an AC40 of 1.66 µM.
For `O=C(Nc1sc2c(c1C(=O)O)CCC2)c1cccs1`, the AC40 was 9.16 µM.
`COc1ccc(NS(=O)(=O)c2ccc(OC)c3ccccc23)cn1` was tested, and the AC40 was 2.67 µM.
`COc1ccc(S(=O)(=O)Nc2ccc(F)cc2)cc1N(C)S(=O)(=O)c1ccc(Cl)cc1` showed an AC40 of 4.94 µM.
For `Cc1noc(C)c1NC(=O)Nc1cccc2c1O[C@@H](CN(C)Cc1ccc(Cl)c(Cl)c1)[C@@H](C)CN([C@H](C)CO)C2=O`, the AC40 was 0.826 µM.
`COc1ccc(NS(=O)(=O)c2cc(C)ccc2OC)cc1OC` was tested, and the AC40 was 3.76 µM.
`CCOc1ccc(C)cc1S(=O)(=O)NC1CCCCC1` was tested, and the AC40 was 0.575 µM.
`COCCNC(=O)c1ccc(C)c(S(=O)(=O)Nc2ccc(C)cc2)c1` gave an AC40 of 6.38 µM.
`C[C@H]1CN([C@@H](C)CO)C(=O)Cc2cc(N(C)C)ccc2O[C@@H]1CN(C)Cc1ccc(C(=O)Nc2ccccc2N)cc1` gave an AC40 of 25.7 µM.
Work on `Cc1ccccc1-c1cnc(C(O)c2ccc(F)c(F)c2)[nH]1` (stereo not given) yielded an AC40 of 6.78 µM.
Compound `CN1C(=O)c2cc(NC(=O)NCc3ccccc3)ccc2OC[C@@H]2O[C@@H](CC(=O)NCC3CCCCC3)CC[C@@H]21` has an AC40 of 3.21 µM.
`CC(=O)N1CCOc2ccc(S(=O)(=O)Nc3cccc(C)c3)cc21` gave an AC40 of 1.64 µM.
`Cc1ccc(C)c(S(=O)(=O)NC2CCS(=O)(=O)C2)c1` (stereo not given) showed an AC40 of 8.66 µM.
In the case of `Cc1cccc(S(=O)(=O)NC2CCCCCCC2)c1`, the AC40 is reported as 3.27 µM.
`Cc1ccc(S(=O)(=O)Nc2ccccc2-c2ccccc2)cc1` was tested, and the AC40 was 12.4 µM.
In the case of `Cc1cc(C)cc(NS(=O)(=O)c2ccc(F)cc2)c1`, the AC40 is reported as 10.9 µM.
`COc1ccc(NS(=O)(=O)c2cc(NC(=O)c3ccc(F)cc3)ccc2OC)cc1` showed an AC40 of 3.14 µM.
